Where two headings read alike, the source gives them in different places.
Legend:
[1] = molecular target: T1, LTD4 receptor (Cavia porcellus, UniProt Q2NNR5); experiment: LTD4 receptor binding assay using guinea pig lung membrane preparations; conditions: for Receptor Binding LTD4 IC50: Table 1, results are from Table 3, 10^-5 M
T1 construct: from tissue; host or cells: lung membranes of male Hartley guinea pigs
T1 sequence (Q2NNR5 1-340): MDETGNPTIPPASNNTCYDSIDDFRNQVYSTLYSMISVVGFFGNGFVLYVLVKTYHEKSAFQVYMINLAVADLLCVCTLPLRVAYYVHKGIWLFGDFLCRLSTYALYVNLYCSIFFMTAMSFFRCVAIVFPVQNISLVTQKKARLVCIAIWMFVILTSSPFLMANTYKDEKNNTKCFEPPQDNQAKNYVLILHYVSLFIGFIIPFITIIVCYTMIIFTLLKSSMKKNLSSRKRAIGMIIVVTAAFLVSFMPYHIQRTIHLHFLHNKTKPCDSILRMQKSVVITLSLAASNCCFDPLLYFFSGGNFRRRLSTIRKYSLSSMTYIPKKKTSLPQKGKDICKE
Method: MEMBRANE PREPARATIONS: For each membrane preparation, 10-11 male Hartley guinea pigs, weighing less than 350 gm, were sacrificed by guillotine. The lungs were rapidly removed and placed in ice-cold 50 mM Trisma 7.0 buffer. After all the lungs were collected, each was probed free of bronchial tissue to at least the level of tertiary branching as observed through a dissecting lamp. The tissue was minced with a razor blade on a damp paper towel and placed into fresh ice-cold Trisma 7.0 buffer. When all the tissues had been processed, they were pooled, drained and weighed. Nine volumes of cold buffer were added and the tissue was polytroned for 6-10 second bursts with a 1 minute cool down period in an ice bath between each burst. The homogenate was filtered through a gauze pad and centrifuged at 1085× g for 15 minutes at 4° C. Supernatants were saved and centrifuged at 40,000× g for 20 minutes at 4° C. This time, supernatants were discarded and the pellets were resuspended in 30-35 ml fresh Trisma 7.0 buffer by 1-10 second bursts with the polytron. The materials were centrifuged again at 40,000× g. Supernatants were again discarded. Each pellet was resuspended again with approximately 7 ml buffer. All this material was pooled into a 100 ml polypropylene container and stirred with a magnetic stirring bar. The tubes were rinsed with small amounts of buffer and the rinse was added to the membrane preparation. The homogenized membranes were aliquoted into 1.5 ml microfuge tubes and frozen at -70° C. Three aliquots were submitted for protein determinations by FPB (fluorescamine protein binding) assay.
Unless otherwise indicated, all binding experiments were performed in a final incubation volume of 250 μl. […] Both materials were received in solutions. […] Both solutions were brought to appropriate assay concentrations by dilution in assay buffer consisting of 50 mM Trisma 7.4 with 5 mM L-cysteine and 20 mM CaCl2. Membranes were also diluted with this assay buffer. […] Diluent was added to all other appropriate control tubes. Incubations were conducted for 30 minutes at 25° C. in a shaking water bath. Termination of the reaction was achieved by pouring the incubate over 2.5 cm Whatman GF/C filters soaked in assay buffer and set over the ports of Millipore filter vacuum manifolds. Filters were rinsed with 4 ml ice cold assay buffer 3 times. The filters were removed, placed in 10 ml Aquasol scintillation cocktail and allowed to cool in the dark for 2 hours prior to counting. All samples were corrected for background and isotope decay before converting DPM determination to mass.
These values were logit-transformed and linear regression was performed on the dose-response data. All dose-response sets used to calculate IC50 values contained data from 3-6 compound concentrations. […] IC50 values were calculated from the regression equation for the line.
male guinea pig lung homogenate which was aliquoted and stored at
-70° C. The particular preparation used to test the compounds of
Protein concentrations in these assays were adjusted
to provide aproximately 0.1 nM receptor in the presence of lnM ^3
HLTD4. Incubation was conducted for 30 min.
at 24° C. and filtration methods were used to separate bound from
tested were intially solubilized in DMSO. Each compound was evaluated at
dose of 10 μM (10^-5 M) in triplicate in 2 separate assays. The

[2] = molecular target: T2, LTB4 receptor (Homo sapiens, UniProt Q15722); experiment: LTB4 receptor binding assay ((3H) LTB4, human neutrophils); conditions: Table 1
T2 construct: Neutrophils were purified from venous blood of normal human donors; endogenous in cells; host or cells: purified human blood neutrophils (intact cells)
Method: Neutrophils (4-6×10^6) in 1 ml Hanks' balanced salt solution containing 10 mM HEPES buffer (HBSS), pH 7.4 and 30 μM nordihydroguaiaretic acid were incubated with 0.6×10^-9 M (^3 H) LTB4 in the presence or absence of test compounds. The incubation was carried out at 0° C. for 45 minutes and terminated by adding 5 ml of ice-cold HBSS followed by rapid filtration of incubation mixture under vacuum through GF/C glass fiber filters. The filters were further washed with 10 ml HBSS and radioactivity was determined. Specific binding was defined as the difference between total binding and nonspecific binding which was not displaced by 10^-7 M unlabeled LTB4. All data refer to specific binding.

[3] = tested on: human neutrophils; experiment: Modified Boyden chamber chemotaxis (LTB4, human neutrophils); format: cell-based; conditions: Neutrophil
Method: Human neutrophils were isolated from citrated peripheral blood using standard techniques of dextran sedimentation, followed by centrifugation on Histopaque® sterile solution (Sigma) or Ficoll-paque® (Pharmacia) and hypotonic lysis of erythrocytes. A final cell suspension of 3.4×10^6 neutrophils/ml of HEPES-buffered Hanks balanced salt solution (HBSS, pH 7.3) was added to the upper well (0.8 ml) of a modified Boyden chamber (blind well). The lower well (0.2 ml), separated by a polycarbonate membrane (Nuleopore Corp.), contained HBSS or 3×10^-8 M LTB4 in the presence of absence of test compound. Following a 90 minute incubation at 37° C. in 5% CO2 -95% air, cells from the lower well were lysed and nuclei counted in a Model S-Plus-IV Coulter Counter. Percent inhibition was calculated from cell counts corrected for random migration by subtracting the mean of the HBSS control.

[4] = molecular target: T3, guinea pig ileum (Cavia porcellus, UniProt Q2NNR5); experiment: LTD4 antagonism in guinea pig ileum (contraction); conditions: for Kb: read-out: Guinea Pig Ileum Contraction pA2 (converted)
T3 construct: from tissue; host or cells: guinea pig ileum segments
T3 sequence (Q2NNR5 1-340): T1 sequence (Q2NNR5 1-340)
Method: Fresh segments of guinea pig ileum were suspended in 2 ml. tissue baths containing oxygenated modified Tyrodes solution. […] The ileum segments were washed and rested between exposures to agonist. Following this, the tissues were incubated with a single concentration of test compound and the agonist dose-response procedure was repeated. The dose ration is a measure of the antagonist's ability to shift the agonist dose-response curve to the right. It is derived as the concentration of agonist necessary to reach a given response level in the present (A') versus the absence (A) of antagonist. For example, if the test concentration of compound had no effect on the agonist-induced response (A'=A) the dose-ratio would approximate 1. […] One dose-ratio value is determined for each strip of ileum used to test antagonist. […] Schild analysis examines the linearity of the function described by the dose-ratios written as log (A'/A) versus antagonist concentration. If linearity is confirmed and the slope approximates -1, inhibition is considered to be competitive. […] This value is considered to be a measure of the affinity of the competitive antagonist.

[5] = tested on: human neutrophils; experiment: Human neutrophil degranulation assay (LTB4-induced, myeloperoxidase release); format: cell-based; conditions: Table 1, LTB4 (5×10^-8 M)
Method: Neutrophils were purified from venous blood of normal human donors using standard techniques of dextran sedimentation, centrifugation on Ficoll-paque® (Pharmacia) or Histopaque® sterile solution (Sigma) and hypotonic lysis of erythrocytes (Boyum, A., Isolation of Leukocytes From Human Blood: Further Observations. Scand. J. Lab. Clin. Invest., 21 (Suppl. 97): 31, 1968). The purity of isolated neutrophils was >95%.
Neutrophil degranulation was determined by measuring the release of myeloperoxidase activity into the incubation medium. Neutrophils (3×10^6) in 1 ml HBSS solution were preincubated with cytochalasin B (5 μg) at 37° C. for 5 minutes, followed by preincubation with test compounds for 7 minutes. Neutrophils were then incubated for 2 to 20 minutes with either LTB4 (5×10^-8 M) or the chemotactic peptide f-met-leu-phe (5×10^-6 M) to induce degranulation. Following incubation, samples were centrifuged and myeloperoxidase was extracted from the cell pellets by sonication in phosphate buffer containing 0.4% Triton X-100. Triton X-100 was also added to the supernatants to a concentration of 0.4%. The supernatants and the pellet - extracts were then assayed spectrophotometrically for myeloperoxidase activity by determining the rate of decomposition of H2 O2 with o-dianisidine as hydrogen donor as described by Renlund, et al. (Renlund, D. G., MacFarlane, J. L., Christensen, R. D., Lynch, R. E., and Rothstein, G., A Quantitative And Sensitive Method For Measurement Of Myeloperoxidase, Clinical Research 28:75A, 1980). Myeloperoxidase activity released into the supernatant was expressed as the percent of the average total activity (pellet plus supernatant).

[6] = read-out: LTD4 Receptor Binding Activity
[7] = read-out: LTD4 Receptor Binding Percent Inhibition, Test #1, triplicate, 30 min, 24° C.
[8] = read-out: LTD4 Receptor Binding Percent Inhibition, Test #2, triplicate, 30 min, 24° C.

T2 sequence (Q15722 whole entry): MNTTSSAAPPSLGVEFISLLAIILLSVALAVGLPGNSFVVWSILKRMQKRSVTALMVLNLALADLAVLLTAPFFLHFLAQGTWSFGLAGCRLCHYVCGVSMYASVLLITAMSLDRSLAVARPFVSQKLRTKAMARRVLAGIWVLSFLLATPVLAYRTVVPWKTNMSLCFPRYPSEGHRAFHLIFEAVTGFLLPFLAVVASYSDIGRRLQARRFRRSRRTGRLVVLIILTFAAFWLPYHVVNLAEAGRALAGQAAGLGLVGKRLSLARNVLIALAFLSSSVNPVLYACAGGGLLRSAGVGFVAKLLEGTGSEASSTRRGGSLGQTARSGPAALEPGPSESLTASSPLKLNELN

Row | SMILES | Receptor Binding LTD4 IC50 [1] | inhibition at 10 µM [1, 6] [%] | inhibition at 10 µM [1, 7] [%] | inhibition at 10 µM [1, 8] [%] | IC50 [2] [nM] | IC50 [3] [nM] | Kb [4] [nM] | IC50 [5] [nM] | Guinea Pig Ileum Contraction pA2 ([4]; Table 2, LTD4 agonist)
1 | CCCc1c(OCCCOc2ccc3c(=O)cc(C(=O)O)oc3c2CCC)ccc(C(C)=O)c1OC [Example 7, 7-[3-(4-acetyl-3-methoxy-2-propylphenoxy)propoxy]-4-oxo-8-propyl-4H-1-benzopyran-2-carboxylic acid] | Inactive | < 45 | 28.9 | 34.4 | 500 | 3600 | 182 | 3700 | –
2 | CCCc1c(OCCCCCOc2ccc(C(C)=O)c(OC)c2CCC)ccc2c1OC(C(=O)O)CC2 (stereo not drawn) [Example 15, 7-[[5-(4-acetyl-3-methoxy-2-propylphenoxy)pentyl]oxy]-3,4-dihydro-8-propyl-2H-1-benzopyran-2-carboxylic acid] | – | – | – | – | 500 | 6600 | – | 1500 | Inactive
3 | CCCc1c(OCCCOc2ccc(C(C)=O)c(OC)c2CCC)ccc2c1OC(CCC(=O)O)CC2 (stereo not drawn) [Example 20, 7-[3-(4-acetyl-3-methoxy-2-propylphenoxy)propoxy]-3,4-dihydro-8-propyl-2H-1-benzopyran-2-propanoic acid] | Inactive | < 45 | 13 | 23.5 | 500 | 1700 | 316 | 40 | –
4 | CCCc1c(OCCCOc2ccc3c(c2CCC)OC(C(=O)O)CC3)ccc(C(C)=O)c1O (stereo not drawn) [reference compound] | – | – | – | – | – | – | 25.1 | – | –
